Test results from US9125947B2, “Phenylethanoic acid, phenylpropanoic acid and phenylpropenoic acid conjugates and prodrugs of hydrocodone, method of making and use thereof” (KemPharm, Inc., priority 2009, dated 2015).

Assays:
[1] = Oral PK in rats, Ibu-HC and Cinnamate-HC vs Hydrocodone BT (Example 5)
[2] = Chemical stability: hydrolysis in 5% NaHCO3; format: physicochemical; conditions: 5% NaHCO3, one hour; for initial amount of conjugate hydrolyzed, 5% NaHCO3 ambient: ambient temperature (~20° C.); for initial amount of conjugate hydrolyzed, 5% NaHCO3 100° C.: oil bath at 100° C.
[3] = Water solubility / ability to be dosed in solution (Example 4)
[4] = Intranasal PK in rats, Ibu-HC vs Hydrocodone BT (Example 6); format: in vivo
Description: The intranasal profiles of Ibu-HC were compared to the unconjugated drug Hydrocodone•BT by administering to rats intranasally and measuring the plasma concentration of hydrocodone or hydromorphone over time.

[5] = Intranasal PK in rats, Ibu-HC vs Adipate-HC (Example 3); conditions: equivalent to 2 mg/kg freebase hydrocodone
[6] = Chemical stability: hydrolysis to hydrocodone in 1 N hydrochloric acid; conditions: 1 hour; for initial amount of conjugate hydrolyzed, 1N HCl ambient: ambient temperature (~20° C.); for initial amount of conjugate hydrolyzed, 1N HCl 100° C.: oil bath at 100° C.

SMILES | initial amount of conjugate hydrolyzed, 5% NaHCO3 ambient [2] [%] | initial amount of conjugate hydrolyzed, 5% NaHCO3 100° C. [2] [%] | water solubility [3] | initial amount of conjugate hydrolyzed, 1N HCl ambient [6] [%] | initial amount of conjugate hydrolyzed, 1N HCl 100° C. [6] [%] | other results
COc1ccc2c3c1OC1C(OC(=O)C(C)c4ccc(CC(C)C)cc4)=CCC4C(C2)N(C)CCC314 (stereo not shown) [Ibu-HC, ibuprofen-hydrocodone] | 0 | 22 | very low water solubility |  |  | hydrocodone and hydromorphone plasma concentrations compared with unconjugated Hydrocodone•BT ([1]; equivalent to 2 mg/kg freebase hydrocodone): similar; AUC and Cmax values (hydrocodone and hydromorphone) compared with Hydrocodone•BT ([1]; same dose based on hydrocodone freebase (2 mg/kg)): within the range of bioequivalence; hydrocodone plasma concentrations compared with Hydrocodone•BT [4]: significantly lower; plasma concentration of hydromorphone compared with Hydrocodone•BT [4]: very low; hydrocodone plasma concentrations compared with Adipate-HC [5]: significantly lower; plasma concentration of hydromorphone compared with Adipate-HC [5]: very low
COc1ccc2c3c1OC1C(OC(=O)CCCCC(=O)O)=CC[C@H]4[C@@H](C2)N(C)CC[C@]314 (stereo partly shown) [Adipate-HC, reference compound] | 3 | 100 | water-soluble | 13 | 100 | hydromorphone AUC, higher than Ibu-HC ([5]; hydromorphone in plasma, relative to Ibu-HC): approximately 940%; hydrocodone AUC, higher than Ibu-HC ([5]; released hydrocodone in plasma, relative to Ibu-HC): approximately 170%
COc1ccc2cc(C(C)C(=O)OC3=CCC4C5Cc6ccc(OC)c7c6C4(CCN5C)C3O7)ccc2c1 (stereo not shown) [Naproxen-HC, naproxen-hydrocodone] | 0 | 8 |  | 0 | 33 | 
COc1ccc2c3c1OC1C(OC(=O)COCC(=O)O)=CC[C@H]4[C@@H](C2)N(C)CC[C@]314 (stereo partly shown) [Diglycolate-HC] |  |  | water-soluble |  |  | 
COc1ccc2c3c1O[C@H]1C(=O)CC[C@H]4[C@@H](C2)N(C)CC[C@]314.O=C(O)C(O)C(O)C(=O)O [Hydrocodone•BT, hydrocodone bitartrate, reference compound] |  |  |  |  |  | hydrocodone AUC, higher than Ibu-HC ([4]; hydrocodone in plasma, relative to Ibu-HC): approximately 300%
